What follows are molecules tested against BRD4 (Homo sapiens, UniProt O60885) (assay: Time Resolved Fluorescence Resonance Energy Transfer (TR-FRET) binding assay, BRD4). Conditions: one of the FRET assays described; read-out: FRET BRD4 IC50.

| Structure (SMILES) | IC50 |
| --- | --- |
| Cc1noc(C)c1-c1cnc2c3ccc(C(C)(C)O)cc3n(C(c3ncccc3F)C3CCOCC3)c2c1 (single isomer, unassigned) [Example 345, 2-[3-(Dimethyl-1,2-oxazol-4-yl)-5-[(3-fluoropyridin-2-yl)(oxan-4-yl)methyl]-5H-pyrido[3,2-b]indol-7-yl]propan-2-ol] | < 5 nM |
| Cc1noc(C)c1-c1cnc2c3ccc(C(C)(C)O)cc3n(C(c3ncccc3F)C3CCOCC3)c2c1 (single isomer, unassigned) [Example 346, 2-[3-(Dimethyl-1,2-oxazol-4-yl)-5-[(3-fluoropyridin-2-yl)(oxan-4-yl)methyl]-5H-pyrido[3,2-b]indol-7-yl]propan-2-ol] | < 5 nM |
| Cc1noc(C)c1-c1cnc2c3ccc(C(O)CC#N)cc3n([C@H](c3ccccc3)C3CCOCC3)c2c1 (single isomer, unassigned) [Example 373] | < 5 nM |
| Cc1noc(C)c1-c1cnc2c3ccc(C(O)CC#N)cc3n([C@H](c3ccccc3)C3CCOCC3)c2c1 (single isomer, unassigned) [Example 374] | < 5 nM |
| Cc1nnn(C)c1-c1cnc2c3ccc(C(C)(C)O)cc3n(C(CC3CC3)C3CCOCC3)c2c1 (single isomer, unassigned) [Example 394] | < 5 nM |
| Cc1nnn(C)c1-c1cnc2c3ccc(C(C)(C)O)cc3n(C(CC3CC3)C3CCOCC3)c2c1 (single isomer, unassigned) [Example 395] | < 5 nM |
| Cc1nnn(C)c1-c1cnc2c3ccc(C(C)(C)O)cc3n(C(c3ccc(Cl)cc3)C3CCOCC3)c2c1 (single isomer, unassigned) [Example 398] | < 5 nM |
| Cc1nnn(C)c1-c1cnc2c3ccc(C(C)(C)O)cc3n(C(c3ccc(Cl)cc3)C3CCOCC3)c2c1 (single isomer, unassigned) [Example 399] | < 5 nM |
| Cc1nnn(C)c1-c1cnc2c3ccc(C(C)(C)O)cc3n(C(c3cccc(Cl)c3)C3CCOCC3)c2c1 (single isomer, unassigned) [Example 400] | < 5 nM |
| Cc1nnn(C)c1-c1cnc2c3ccc(C(C)(C)O)cc3n(C(c3cccc(Cl)c3)C3CCOCC3)c2c1 (single isomer, unassigned) [Example 401] | < 5 nM |
| Cc1nnn(C)c1-c1cnc2c3ccc(C(C)(C)O)cc3n(C(c3ccccc3Cl)C3CCOCC3)c2c1 (single isomer, unassigned) [Example 402] | < 5 nM |
| Cc1nnn(C)c1-c1cnc2c3ccc(C(C)(C)O)cc3n(C(c3ccccc3Cl)C3CCOCC3)c2c1 (single isomer, unassigned) [Example 403] | < 5 nM |
| Cc1nnn(C)c1-c1cnc2c3ccc(C(C)(O)C4CC4)cc3n([C@H](c3ccccc3)C3CCOCC3)c2c1 (single isomer, unassigned) [Example 422] | < 5 nM |
| Cc1nnn(C)c1-c1cnc2c3ccc(C(C)(O)C4CC4)cc3n([C@H](c3ccccc3)C3CCOCC3)c2c1 (single isomer, unassigned) [Example 423] | < 5 nM |
| Cc1nnn(C)c1-c1cnc2c3ccc(C(C)(O)C4CC4)c(F)c3n([C@H](c3ccccc3F)C3CCOCC3)c2c1 (single isomer, unassigned) [Example 435] | < 5 nM |
| [2H]C([2H])([2H])c1nnn(C)c1-c1cnc2c3ccc(C(C)(O)C4CC4)c(F)c3n([C@H](c3ccccc3F)C3CCOCC3)c2c1 (single isomer, unassigned) [Example 438] | < 5 nM |
| Cc1nnn(C)c1-c1cnc2c3ccc(C(C)(O)C(F)(F)F)c(F)c3n([C@H](c3ccccc3)C3CCOCC3)c2c1 (single isomer, unassigned) [Example 441] | < 5 nM |
| Cc1nnn(C)c1-c1cnc2c3cc(F)c(C(C)(O)C4CC4)cc3n([C@H](c3ccccc3)C3CCOCC3)c2c1 (single isomer, unassigned) [Example 443] | < 5 nM |
| Cc1nnn(C)c1-c1cnc2c3cc(F)c(C(C)(O)C4CC4)cc3n([C@H](c3ccccc3)C3CCOCC3)c2c1 (single isomer, unassigned) [Example 444] | < 5 nM |
| Cc1nnn(C)c1-c1cnc2c3cc(F)c(C(C)(O)C4CC4)cc3n([C@H](c3ccccc3F)C3CCOCC3)c2c1 (single isomer, unassigned) [Example 447] | < 5 nM |
| Cc1nnn(C)c1-c1cnc2c3cc(F)c(C(C)(O)C4CC4)cc3n([C@H](c3ccccc3F)C3CCOCC3)c2c1 (single isomer, unassigned) [Example 448] | < 5 nM |
| Cc1nnn(C)c1-c1cnc2c3cc(F)c(C(C)(O)C4CC4)c(F)c3n([C@H](c3ccccc3)C3CCOCC3)c2c1 (single isomer, unassigned) [Example 449] | < 5 nM |
| Cc1nnn(C)c1-c1cnc2c3cc(F)c(C(C)(O)C4CC4)c(F)c3n([C@H](c3ccccc3)C3CCOCC3)c2c1 (single isomer, unassigned) [Example 450] | < 5 nM |
| [2H]C([2H])([2H])c1nnn(C)c1-c1cnc2c3ccc(C(C)(C)O)c(F)c3n(C(c3ncccc3F)C3CCC(F)(F)CC3)c2c1 (single isomer, unassigned) [Example 456] | < 5 nM |
| [2H]C([2H])([2H])c1nnn(C)c1-c1cnc2c3ccc(C(C)(C)O)cc3n(C(c3cc(Cl)ccn3)C3CCOCC3)c2c1 (single isomer, unassigned) [Example 457] | < 5 nM |
| [2H]C([2H])([2H])c1nnn(C)c1-c1cnc2c3ccc(C(C)(C)O)c(F)c3n(C(c3ncccc3F)C3CCOCC3)c2c1 (single isomer, unassigned) [Example 458] | < 5 nM |
| Cc1nnc(C)n1-c1cnc2c3ccc(C(C)(C)O)cc3n(C(c3ccccc3)C3CCOCC3)c2c1 (stereo in doubt) [Example 357, 2-[3-(Dimethyl-4H-1,2,4-triazol-4-yl)-5-[(R)-oxan-4-yl(phenyl)methyl]-5H-pyrido[3,2-b]indol-7-yl]propan-2-ol] | < 5 nM |

| Structure (SMILES) | IC50 |
| --- | --- |
| CCC(CC)n1c2cc(C(C)(C)O)ccc2c2ncc(-c3c(C)noc3C)cc21 [Example 4] | < 25 nM |
| COCC(c1ccccc1)n1c2cc(C(C)(C)O)ccc2c2ncc(-c3c(C)noc3C)cc21 (stereo not drawn) [Example 5] | < 5 nM |
| Cc1noc(C)c1-c1cnc2c3ccc(C(C)(C)O)cc3n([C@@H](CCC(F)(F)F)c3ccccc3)c2c1 [Example 9] | < 5 nM |
| Cc1noc(C)c1-c1cnc2c3ccc(C(C)(C)O)cc3n([C@H](CCC(F)(F)F)c3ccccc3)c2c1 [Example 10] | < 25 nM |
| Cc1noc(C)c1-c1cnc2c3ccc(C(C)(C)O)cc3n([C@H](c3ccccc3)C3CC3)c2c1 [Example 11] | < 25 nM |
| Cc1noc(C)c1-c1cnc2c3ccc(C(C)(C)O)cc3n([C@@H](c3ccccc3)C3CC3)c2c1 [Example 12] | < 25 nM |
| Cc1noc(C)c1-c1cnc2c3ccc(C(C)(C)O)cc3n([C@H](c3ccccc3)C3CCC3)c2c1 [Example 13] | < 5 nM |
| Cc1noc(C)c1-c1cnc2c3ccc(C(C)(C)O)cc3n([C@@H](c3ccccc3)C3CCC3)c2c1 [Example 14] | < 25 nM |
| Cc1noc(C)c1-c1cnc2c3ccc(C(C)(C)O)cc3n([C@H](c3ccc(F)cc3)C3CCC3)c2c1 [Example 15] | < 5 nM |
| Cc1noc(C)c1-c1cnc2c3ccc(C(C)(C)O)cc3n([C@@H](c3ccc(F)cc3)C3CCC3)c2c1 [Example 16] | < 25 nM |
| Cc1noc(C)c1-c1cnc2c3ccc(C(C)(C)O)cc3n([C@H](c3ccc(F)cc3)C3CCOC(C)(C)C3)c2c1 (stereo partly drawn) [Example 17] | < 25 nM |
| Cc1noc(C)c1-c1cnc2c3ccc(C(C)(C)O)cc3n([C@@H](c3ccc(F)cc3)C3CCOC(C)(C)C3)c2c1 (stereo partly drawn) [Example 18] | < 1500 nM |
| Cc1noc(C)c1-c1cnc2c3ccc(C(C)(C)O)cc3n([C@H](CCC(F)(F)F)c3cscn3)c2c1 [Example 19] | < 5 nM |
| Cc1noc(C)c1-c1cnc2c3ccc(C(C)(C)O)cc3n([C@@H](CCC(F)(F)F)c3cscn3)c2c1 [Example 20] | < 25 nM |
| Cc1noc(C)c1-c1cnc2c3ccc(C(C)(C)O)cc3n([C@H](c3ccccn3)C3CCOCC3)c2c1 [Example 21] | < 5 nM |
| Cc1noc(C)c1-c1cnc2c3ccc(C(C)(C)O)cc3n([C@@H](c3ccccn3)C3CCOCC3)c2c1 [Example 22] | < 5 nM |
| Cc1noc(C)c1-c1cnc2c3ccc(C(C)(C)O)cc3n([C@@H](CCC(F)(F)F)c3ccccn3)c2c1 [Example 23] | < 5 nM |
| Cc1noc(C)c1-c1cnc2c3ccc(C(C)(C)O)cc3n([C@H](CCC(F)(F)F)c3ccccn3)c2c1 [Example 24] | < 1500 nM |
| Cc1noc(C)c1-c1cnc2c3ccc(C(C)(C)O)cc3n(C(C3CCC3)C3CCC3)c2c1 [Example 31, 2-[5-(Dicyclobutylmethyl)-3-(dimethyl-1,2-oxazol-4-yl)-5H-pyrido[3,2-b]indol-7-yl]propan-2-ol] | < 5 nM |
| Cc1noc(C)c1-c1cnc2c3ccc(C(=O)O)cc3n(C(c3ccccc3)C3CCOCC3)c2c1 (stereo not drawn) [Example 44, 3-(Dimethyl-1,2-oxazol-4-yl)-5-[oxan-4-yl(phenyl)methyl]-5H-pyrido[3,2-b]indole-7-carboxylic acid] | < 5 nM |
| Cc1noc(C)c1-c1cnc2c3ccc(C(=O)O)cc3n(C(c3ccccc3)c3ccccc3)c2c1 [Example 45, 3-(Dimethyl-1,2-oxazol-4-yl)-5-(diphenylmethyl)-5H-pyrido[3,2-b]indole-7-carboxylic acid] | < 5 nM |
| Cc1noc(C)c1-c1cnc2c3ccc(C(C)(C)O)cc3n(Cc3ccccc3)c2c1 [Example 46, 2-[5-Benzyl-3-(dimethyl-1,2-oxazol-4-yl)-5H-pyrido[3,2-b]indol-7-yl]propan-2-ol] | < 1500 nM |
| Cc1noc(C)c1-c1cnc2c3ccc(C(C)(C)O)cc3n(CC3CCOCC3)c2c1 [Example 47] | < 25 nM |
| Cc1noc(C)c1-c1cnc2c3ccc(C(C)(C)O)cc3n(Cc3ccc(F)cc3)c2c1 [Example 48] | < 25 nM |
| Cc1noc(C)c1-c1cnc2c3ccc(C(C)(C)O)cc3n(CC3CCC(F)(F)CC3)c2c1 [Example 49] | < 5 nM |
| Cc1noc(C)c1-c1cnc2c3ccc(C(F)F)cc3n(Cc3ccccc3)c2c1 [Example 50, 4-[5-Benzyl-7-(difluoromethyl)-5H-pyrido[3,2-b]indol-3-yl]-3,5-dimethyl-1,2-oxazole] | < 1500 nM |
| Cc1noc(C)c1-c1cnc2c3ccccc3n(Cc3ccccc3)c2c1 [Example 51, 4-(5-Benzyl-5H-pyrido[3,2-b]indol-3-yl)-3,5-dimethyl-1,2-oxazole] | < 1500 nM |
